# Experimental data reported in ChEMBL document CHEMBL1152531, “Amphotericin B-induced ion flux is markedly attenuated in phosphatidylglycerol membrane as evidenced by a newly devised fluorometric method” (Bioorg Med Chem, 2009).
# Activity calls are given as the source filed them. No cut-off for these calls is given here.
# Key:
# [1] = Membrane permeabilizing activity across cholesterol-containing 1-palmitoyl-2-oleoyl-sn-glycero-3-phosphocholine liposome assessed as K+ ion influx at compound to lipid ratio of 0.0001 to 0.001 after 18 hrs by BCECF staining-based fluorometric method; format: physicochemical; conditions: artificial membrane
# [2] = Membrane permeabilizing activity across 1-palmitoyl-2-oleoyl-sn-glycero-3-phosphocholine liposome assessed as K+ ion influx at compound to lipid ratio of 0.001 to 0.01 after 18 hrs by BCECF staining-based fluorometric method; format: physicochemical; conditions: artificial membrane
# [3] = Membrane permeabilizing activity across 1-palmitoyl-2-oleoyl-sn-glycero-3-phosphatidylglycerol liposome assessed as K+ ion influx at compound to lipid ratio of 0.001 to 0.01 after 18 hrs by BCECF staining-based fluorometric method; format: physicochemical; conditions: artificial membrane
# [4] = Membrane permeabilizing activity across ergosterol-containing 1-palmitoyl-2-oleoyl-sn-glycero-3-phosphocholine liposome assessed as K+ ion influx at compound to lipid ratio of 0.0001 to 0.001 after 18 hrs by BCECF staining-based fluorometric method; format: physicochemical; conditions: artificial membrane
# Lipid bilayer [5] = assay: Binding affinity to 1-palmitoyl-2-oleoyl-sn-glycero-3-phosphocholine bilayer membrane at 6.3 uM after 18 hrs by UV spectroscopy
# Lipid bilayer [6] = assay: Binding affinity to 1-palmitoyl-2-oleoyl-sn-glycero-3-phosphatidylglycerol bilayer membrane at 6.3 uM after 18 hrs by UV spectroscopy
# [7] = Membrane permeabilizing activity across 1-palmitoyl-2-oleoyl-sn-glycero-3-phosphocholine liposome assessed as K+ ion influx at compound to lipid ratio of 0.0001 to 0.001 after 18 hrs by BCECF staining-based fluorometric method; format: physicochemical; conditions: artificial membrane
# [8] = Binding affinity to bilayer membrane of 1-palmitoyl-2-oleoyl-sn-glycero-3-phosphatidylglycerol and 30% 1-palmitoyl-2-oleoyl-sn-glycero-3-phosphocholine at 6.3 uM after 18 hrs by UV spectroscopy
# [9] = (§1) Membrane permeabilizing activity across large unilamellar vesicle containing 1-palmitoyl-2-oleoyl-sn-glycero-3-phosphatidylglycerol and 10% 1-palmitoyl-2-oleoyl-sn-glycero-3-phosphocholine assessed as K+ ion influx at compound to lipid ratio of 0.001 to 0.01 after 18 hrs by BCECF staining-based fluorometric method; format: physicochemical
# [10] = as §1, with “30%” for “10%”; format: physicochemical
structure (smiles),measurement,setting,value
C[C@@H]1[C@H](O)[C@@H](C)/C=C/C=C/C=C/C=C/C=C/C=C/C=C/[C@H](O[C@@H]2O[C@H](C)[C@@H](O)[C@H](N)[C@@H]2O)C[C@@H]2O[C@](O)(C[C@@H](O)C[C@@H](O)[C@H](O)CC[C@@H](O)C[C@@H](O)CC(=O)O[C@H]1C)C[C@H](O)[C@H]2C(=O)O [AMPHOTERICIN B],Activity,[1],Not Active
same,Activity,[2],Active
same,Activity,[3],Not Active
same,Activity,[4],Active
same,Activity,Lipid bilayer [5],Active
same,Activity,Lipid bilayer [6],Active
same,Activity,[7],Not Active
same,Activity,[8],Active
same,Activity,[9],Active
same,Activity,[10],Active
